In publication PMC6316600, “Analgesic Activity of Acid-Sensing Ion Channel 3 (ASIС3) Inhibitors: Sea Anemones Peptides Ugr9-1 and APETx2 versus Low Molecular Weight Compounds” (Marine Drugs, 2018):
Entries after “also recorded” stand apart in the source; their conditions may differ. Bridge positions count the residues as written; N and C are the ends. Peptide text beside a SMILES is read from it.

Columns and labels:
human ASIC3 = target: T1, human ASIC3 (Homo sapiens, UniProt Q9UHC3); assay: Inhibition of transient hASIC3 current, two-electrode voltage clamp, Xenopus laevis oocytes; assay type: cell-based
T1 construct: host or cells: Xenopus laevis oocytes (cRNA injection)
T1 sequence (Q9UHC3 1-531): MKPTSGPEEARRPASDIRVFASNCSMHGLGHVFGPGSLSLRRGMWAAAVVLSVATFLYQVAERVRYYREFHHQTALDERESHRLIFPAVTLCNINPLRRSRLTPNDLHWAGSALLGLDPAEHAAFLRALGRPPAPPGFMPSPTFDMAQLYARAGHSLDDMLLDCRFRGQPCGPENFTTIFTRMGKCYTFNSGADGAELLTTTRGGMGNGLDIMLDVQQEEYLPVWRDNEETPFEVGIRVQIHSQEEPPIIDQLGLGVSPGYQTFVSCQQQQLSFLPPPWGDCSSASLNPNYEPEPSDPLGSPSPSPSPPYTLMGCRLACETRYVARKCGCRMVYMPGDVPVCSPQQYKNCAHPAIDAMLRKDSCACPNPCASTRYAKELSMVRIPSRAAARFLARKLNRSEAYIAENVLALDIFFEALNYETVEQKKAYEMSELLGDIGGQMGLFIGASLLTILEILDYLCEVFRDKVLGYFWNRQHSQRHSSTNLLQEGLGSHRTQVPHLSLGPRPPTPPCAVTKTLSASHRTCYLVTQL
Protocol: The activity of ligands was checked on human ASIC3 (hASIC3) channels expressed in Xenopus laevis oocytes. […] Two different protocols were used to reveal the effects of ligands on sustained and transient components of acid-induced hASIC3 currents. The influence of the compounds on the transient current amplitude was estimated after preincubation for 15 s before the activation in a low alkali bath solution (pH 7.8), which ensured an absence of steady-state desensitization for the transient current (Figure 1A). The compounds’ inhibition effectiveness was calculated using the value of maximal amplitudes. […] The inhibitory effect was concentration-dependent and fit well using a logistic equation.
Figure 1 Comparison of ligands’ antagonistic effects on hASIC3 channels. Whole-cell currents were induced by pH drops and recorded at the holding potential −50 mV. (A) Effect of ligands on the transient component of current at conditioning pH 7.8. The control trace is shown first; (B) Effect of ligands on the sustained component at conditioning pH 7.3. The black line is the control trace, and the red line is the trace of activation in the presence of a ligand. Dose-response curves for transient (C) and sustained (D) currents’ inhibitions are shown. Data are shown as mean ± SEM (n = 4–6) and fitted with the logistic equation (solid lines).
X. laevis oocytes were removed surgically and defolliculated by collagenase (Sigma-Aldrich, Moscow, Russia). Oocytes were injected with 2.5 to 10 ng of human ASIC3 cRNA (AF057711.1). The cRNA transcripts were synthesised from a NaeI-linearized ASIC3 cDNA template (pcDNA3.1+humanASIC3 subcloned from clone EX-Q0260- B02 (GeneCopoeia, Inc., Rockville, MD USA) using a HiScribe T7 High Yield RNA Synthesis Kit (New England Biolabs, Ipswich, MA, USA) according to the manufacturer’s protocol for capped transcripts. After the injection, oocytes were kept for 3 to 6 days at 19° in a ND-96 medium containing (in mM) 96 NaCl, 2 KCl, 1.8 CaCl2, 1 MgCl2, and 5 HEPES titrated to pH 7.4 with NaOH supplemented with gentamycin (50 µg/mL). Two-electrode voltage clamp recordings were performed using a GeneClamp 500 amplifier (Axon Instruments, Union City, CA, USA), and the data were filtered at 20 Hz and digitized at 100 Hz by an AD converter L780 (LCard, Moscow, Russia) using in-house software. To induce transient and/or sustained currents, two different protocols with different conditioning pH were used. Microelectrodes were filled with a 3 M KCl solution. The working buffer solution was ND-96 titrated by NaOH to pH 7.8 or 7.3. The solution for the pH shift was constructed based on the ND-96 solution, in which 5 mM HEPES was replaced with 10 mM acetic acid (pH 4.0) or 10 mM MES (pH 5.5) in a supplementary 0.1% BSA solution. The duration of the activation pulses was 3.5 s.
The analysis of the electrophysiological data was performed using the OriginPro 8.6 programme.

mice = assay: Acetic acid-induced writhing; assay type: in vivo, CD-1 mice
Protocol: Acetic acid-induced writhing is based on irritation of tissues and organs of the abdomen by low pH and could be considered the most appropriate test for influence on acid-induced pain. […] It is interesting that the effects of sevanol and Ugr9-1 plateaued at a wide range of doses (0.01–1mg/kg for sevanol and 0.02–1 mg/kg Ugr9-1) (Figure 3C,D).
Figure 3 Effects of ligands in an acetic acid-induced writhing test. […] (A) Efficacy of ASIC3 antagonists at a dose of 1 mg/kg. (B–D) Dose-dependent chart of ligands’ effects: APETx2 (B), sevanol (C), and Ugr9-1 (D). Results are presented as mean ± SEM (n = 8). ** p < 0.01, *** p < 0.001 versus saline group (ANOVA followed by a Tukey’s test).
Adult male CD-1 mice (Animal Breeding Facility Branch of Shemyakin-Ovchinnikov Institute of Bioorganic Chemistry, Russian Academy of Sciences, Pushchino, Russia) weighing 20–25 g were used. Animals that originally passed clinical examination that confirmed no deviations in health were divided into groups (at least eight male mice per group) using the principle of randomization. The average body weight of animals in each group was not statistically different between groups. Animals were housed at room temperature (23 ± 2 °C) and subjected to a 12-h light-dark cycle with food and water available ad libitum. All experiments were performed after receiving approval from the Animal Care and Use Committee of the Branch of the Institute of Bioorganic Chemistry, Russian Academy of Sciences (IBCh RAS) (Pushchino, Russia Federation). The samples were administered intramuscularly 2 h before testing (4 h in the open field test). […]
Separate groups of mice were used. Writhes were caused 2 h after the intramuscular injection of the samples (saline for control mice) with the injection of 0.6% acetic acid in saline (10 mL/kg intraperitoneally). Mice were immediately placed inside transparent glass cylinders, and the latency of a first writhe and the number of writhes were recorded for 15 min.
The data significance in animal tests was determined by an analysis of variance followed by a Tukey’s test. Data are presented as the mean ± SEM.

ASIC3 = conditions: cited from earlier work
Excerpt: An inhibition of ASIC3 was reported to be an attractive approach to producing analgesia. […] Other nonspecific substances can also influence ASIC3 activity.

[1] = hASIC3 in X. laevis oocytes, conditioning pH 7.8, mean ± SEM (n = 4–6)
[2] = intramuscular, 2 h before, n = 8

Compound	Rank of in vitro potency, transient component of hASIC3 current (human ASIC3)	Concentration needed to block transient current relative to APETx2 (human ASIC3; Ugr9-1 versus APETx2) [times]	Lower efficacy in inhibition of the transient component relative to APETx2 (human ASIC3; Ugr9-1 versus APETx2) [times]	Inhibition of transient current (in words) (human ASIC3; conditioning pH 7.8)	Hill coefficient, transient currents (human ASIC3; [1])	Effective dose, lower than that of APETx2, writhing test (mice; Ugr9-1 versus APETx2) [times]	Writhing test result (in words) (mice; intramuscular, 2 h before)	Dose of maximal effect, writhing test (mice; [2]) [mg/kg]	Inhibition of ASIC3 current components (ASIC3)	Maximal effect of reducing pain, writhing test (mice; intramuscular, 2 h before, all doses)	Inhibition of ASIC3 / ASICs currents (ASIC3; sensory neurons and heterologous-expressed ASIC3)	IC50 (human ASIC3; hASIC3 in X. laevis oocytes, conditioning pH 7.8, 15 s preincubation, holding -50 mV, logistic fit, mean ± SEM (n = 4–6), read-out: IC50, transient currents) [µM]	Lower efficacy in vitro relative to APETx2 (human ASIC3; sevanol versus APETx2) [fold]	Lower efficacy in vitro relative to Ugr9-1 (human ASIC3; sevanol versus Ugr9-1) [fold]	Inhibition of writhing (mice; 10 mg/kg intramuscular, 2 h before, n = 8) [%]	In vivo effect, compared with peptides (mice; sevanol versus APETx2 and Ugr9-1)	Inhibition of transient and sustained ASIC3 currents (ASIC3)
CC[C@H](C)[C@H](N)C(=O)N[C@@H](CO)C(=O)N[C@H](C(=O)N[C@@H](CC(=O)O)C(=O)N1CCC[C@H]1C(=O)N1CCC[C@H]1C(=O)N[C@H]1CSSC[C@@H](C(=O)NCC(=O)N[C@@H](C)C(=O)N[C@H](C(=O)O)C(C)C)NC(=O)CNC(=O)[C@H](Cc2ccc(O)cc2)NC(=O)[C@H](C)NC(=O)[C@H](CC(=O)O)NC(=O)[C@H](Cc2ccc(O)cc2)NC(=O)[C@H](C(C)C)NC(=O)[C@@H]2CSSC[C@H](NC(=O)[C@H](Cc3ccccc3)NC(=O)[C@H](CCCNC(=N)N)NC1=O)C(=O)N[C@@H](Cc1ccc(O)cc1)C(=O)N[C@@H](Cc1c[nH]cn1)C(=O)N[C@@H](CCCNC(=N)N)C(=O)N[C@@H](CC(=O)O)C(=O)NCC(=O)N[C@@H](CO)C(=O)NCC(=O)N[C@@H](CC(N)=O)C(=O)N2)[C@@H](C)CC [Ugr9-1] (H-ISIDPPCRFCYHRDGSGNCVYDAYGCGAV-OH; disulfide 7-26, 10-19; N-terminus and C-terminus assumed)	APETx2 > Ugr9-1 > sevanol	30	30	completely blocked the transient current of ASIC3; also recorded: decreased transient and sustained components of the current	1.86 ± 0.16	10	attenuated the response to the intraperitoneal administration of acetic acid; also recorded: The most stable effect was produced by Ugr9-1, and it was slightly more significant in lower doses (0.002 mg/kg)	0.02	inhibit both components of the ASIC3 current	–	–	–	–	–	–	–	–
O=C(O)Cc1ccccc1Nc1c(Cl)cccc1Cl [diclofenac, reference compound]	–	–	–	not detected	–	–	–	–	–	~ 75%	inhibit ASICs currents directly on sensory neurons and heterologous-expressed ASIC3 channels	–	–	–	–	–	–
O=C(O)C[C@H](C(=O)O)[C@@H](OC(=O)C1=Cc2cc(O)c(O)cc2[C@@H](c2ccc(O)c(O)c2)[C@@H]1C(=O)O[C@@H](C(=O)O)[C@H](CC(=O)O)C(=O)O)C(=O)O [sevanol]	APETx2 > Ugr9-1 > sevanol	–	–	had much less potency and inhibited transient currents in submillimolar concentrations; also recorded: complete inhibition was observed; also recorded: decreased transient and sustained components of the current	1.98 ± 0.24	–	attenuated the response to the intraperitoneal administration of acetic acid; also recorded: The efficacy of sevanol was also high	10	–	–	–	331 ± 21	1000	35	76	almost equipotent effect in vivo	inhibited the amplitude of transient and sustained ASIC3 currents
